How the values were obtained:
carmine spider mite = assay: bioactivity test against carmine spider mite, airbrush spray; type: in vivo; conditions: for control against carmine spider mite: mortality after 72 hrs
Outline: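 Broadbean seedlings infested with adult mites were sprayed with compound (acetone/methanol stock diluted in 0.1% Tween 80 water) by airbrush at 0.7 kg/cm^2, 0.5 ml. Three replicates were run. Mortality was scored after 72 hrs.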

wheat powdery mildew = assay: protectant activity in vivo against wheat powdery mildew; conditions: 400 ppm
armyworm = assay: bioactivity test against armyworm, airbrush spray; type: in vivo; conditions: 600 ppm, mortality after 72 h
[1] = tested on: Green peach aphids (Myzus Persicae Sulzer); assay: bioactivity test against green peach aphid, airbrush foliar spray; type: in vivo; conditions: for control (test results against green peach aphid): death rate after 48 hrs
Outline: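 Aphids (15-30 per cabbage leaf disc) on moist filter paper were airbrush-sprayed at 10 psi, 0.5 mL, with compound from acetone:methanol (1:1) diluted in water with 0.1% tween 80. Held at 25±1 C, 60±5% RH; survivors counted after 48 hrs to give death rates.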

Diamond back moth = assay: insecticidal activity against diamond back moth, airbrush spray; type: in vivo; conditions: for control (test results against diamond back moth): 600 ppm, mortality after 72 hrs
Outline: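 Airbrush leaf-disc spray test: both faces of 2 cm cabbage discs received 0.5 ml of test solution at 0.7 kg/cm^2. Solutions were made in acetone:methanol (1:1) and brought to concentration with 0.1% Tween 80 in water. Ten second-instar larvae per disc, triplicates, were held at 25° C and 60˜70% R.H., with mortality recorded at 72 hrs.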

corn rust = assay: protectant activity in vivo against corn rust

SMILES | control against carmine spider mite (carmine spider mite; 100 ppm) [%] | control against carmine spider mite (carmine spider mite; 600 ppm) [%] | protectant activity against wheat powdery mildew in vivo (wheat powdery mildew) [%] | control (test results against green peach aphid) ([1]; 10 ppm) [%] | control (test results against green peach aphid) ([1]; 100 ppm) [%] | control (test results against green peach aphid) ([1]; 600 ppm) [%] | control (test results against diamond back moth) (Diamond back moth) [%] | protectant activity against corn rust in vivo (corn rust; 100 ppm) [%] | protectant activity against corn rust in vivo (corn rust; 400 ppm) [%] | control (test results against armyworm) (armyworm) [%] | other results
Cc1ncnc(NCCc2ccc(Oc3ccc(C(F)(F)F)cn3)cc2)c1Cl [Compound I-6731] | 100 | 100 | 100 | 100 | 100 | 100 | 100 | 100 | 100 | – | pest or weed control at 600 ppm (armyworm; 72 h): 100%; Insecticidal activity against peach aphid (%) ([1]; 1.25 mg/L, contrastive test): 60%; control (test results against green peach aphid) ([1]; 5 ppm): 100%; pest or weed control at 2.5 µg/mL ([1]; Myzus persicae, foliar, 48 h, 2.5 mg/L, contrastive test, read-out: Insecticidal activity against peach aphid (%)): 93%; pest or weed control at 5 µg/mL ([1]; Myzus persicae, foliar, 48 h, 5 mg/L, contrastive test, read-out: Insecticidal activity against peach aphid (%)): 100%; pest or weed control at 10 µg/mL ([1]; Myzus persicae, foliar, 48 h, 10 mg/L, contrastive test, read-out: Insecticidal activity against peach aphid (%)): 100%; pest or weed control at 100 µg/mL ([1]; Myzus persicae, foliar, 48 h, 100 mg/L, contrastive test, read-out: Insecticidal activity against peach aphid (%)): 100%; pest or weed control at 600 µg/mL ([1]; Myzus persicae, foliar, 48 h, 600 mg/L, contrastive test, read-out: Insecticidal activity against peach aphid (%)): 100%
Cc1ncnc(NCCc2ccc(Oc3ccc(C(F)(F)F)cn3)cc2)c1Cl [Compound I-6733] | 100 | 100 | 100 | 100 | 100 | 100 | 100 | 100 | 100 | 100 | Insecticidal activity against diamond back moth (%) (Diamond back moth; 10 mg/L): 40%; Insecticidal activity against diamond back moth (%) (Diamond back moth; 100 mg/L): 68%; Insecticidal activity against diamond back moth (%) (Diamond back moth; 600 mg/L): 100%
Cc1ncnc(NCCc2ccc(Oc3ccc(C(F)(F)F)cn3)cc2)c1Cl [Compound I-6734] | 100 | 100 | 100 | 100 | 100 | 100 | 100 | 100 | 100 | 100 | Insecticidal activity against carmine spider mite (% ) (carmine spider mite; 2.5 mg/L): 51%; Insecticidal activity against carmine spider mite (% ) (carmine spider mite; 5 mg/L): 57%; Insecticidal activity against carmine spider mite (% ) (carmine spider mite; 10 mg/L, contrastive test): 82%; Insecticidal activity against carmine spider mite (% ) (carmine spider mite; 100 mg/L, contrastive test): 100%; Insecticidal activity against carmine spider mite (% ) (carmine spider mite; 600 mg/L, contrastive test): 100%; pest or weed control at 10 µg/mL (Diamond back moth; 72 h, 10 mg/L): 40%; pest or weed control at 100 µg/mL (Diamond back moth; 72 h, 100 mg/L): 52%; pest or weed control at 600 µg/mL (Diamond back moth; 72 h, 600 mg/L): 100%

Reference: patent US9770026B2, “Substituted pyrimidine compound and uses thereof” (Shenyang Sinochem Agrochemicals R&D Co., Ltd., priority 2012, dated 2017)
